Patent US9695155B2, “Herbicidal substituted pyrimidinyloxy benzene compounds” (E. I. DU PONT DE NEMOURS AND COMPANY, priority 2013, dated 2017)

What was measured:
sedge, umbrella = assay: Test B flooded paddy test; type: in vivo, Cyperus difformis; settings: Flood, 250 g ai/ha; 0 to 100 scale where 0 is no effect and 100 is complete control
Summary of the method: (§1)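 Flooded to 3 cm at the 2-leaf stage, pots received compound through the paddy water and were kept at that depth under greenhouse conditions. After 13–15 days, effect was rated by eye relative to controls, 0 = none and 100 = complete control.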

pigweed [1] = assay: Test A preemergence; type: in vivo, Amaranthus retroflexus; settings: for Pigweed plant response rating: 500 g ai/ha
Summary of the method: (§2)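 Visual 0–100 rating (100 = complete control) taken about 10 d post-treatment relative to untreated checks. Preemergence: directed soil spray on sown loam/sand pots. Postemergence: seedlings 2–10 cm, 1–2 leaf. Non-phytotoxic solvent formulation with surfactant.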

corn [2] = assay: Test A preemergence; type: in vivo, Zea mays; settings: for Plant response rating, Corn: 125 g ai/ha; for Corn plant response rating: 500 g ai/ha
Summary of the method: as §2

corn [3] = assay: Test A postemergence; type: in vivo, Zea mays
Summary of the method: as §2

large (Lg) crabgrass [4] = assay: Test A postemergence; type: in vivo, Digitaria sanguinalis
Summary of the method: as §2

barnyardgrass [5] = assay: Test A postemergence; type: in vivo, Echinochloa crus-galli
Summary of the method: as §2

rice = assay: Test B flooded paddy test; type: in vivo, Oryza sativa; settings: Flood, 250 g ai/ha; 0 to 100 scale where 0 is no effect and 100 is complete control
Summary of the method: as §1

giant foxtail [6] = assay: Test A postemergence; type: in vivo, Setaria faberii; settings: 0 to 100 scale where 0 is no effect and 100 is complete control
Summary of the method: as §2

velvetleaf [7] = assay: Test A preemergence; type: in vivo, Abutilon theophrasti; settings: for Velvetleaf plant response rating: 500 g ai/ha
Summary of the method: as §2

wheat [8] = assay: Test A preemergence; type: in vivo, Triticum aestivum; settings: for Wheat plant response rating: 500 g ai/ha
Summary of the method: as §2

velvetleaf [9] = assay: Test A postemergence; type: in vivo, Abutilon theophrasti; settings: 0 to 100 scale where 0 is no effect and 100 is complete control
Summary of the method: as §2

pigweed [10] = assay: Test A postemergence; type: in vivo, Amaranthus retroflexus; settings: 0 to 100 scale where 0 is no effect and 100 is complete control
Summary of the method: as §2

wheat [11] = assay: Test A postemergence; type: in vivo, Triticum aestivum; settings: 0 to 100 scale where 0 is no effect and 100 is complete control
Summary of the method: as §2

barnyardgrass [12] = assay: Test A preemergence; type: in vivo, Echinochloa crus-galli; settings: for Plant response rating, Barnyardgrass: 125 g ai/ha; for Barnyardgrass plant response rating: 500 g ai/ha
Summary of the method: as §2

giant foxtail [13] = assay: Test A preemergence; type: in vivo, Setaria faberii; settings: for Plant response rating, Foxtail, Giant: 125 g ai/ha; for Foxtail, Giant plant response rating: 500 g ai/ha
Summary of the method: as §2

Heteranthera limosa = assay: Test B flooded paddy test; type: in vivo; settings: Flood, 250 g ai/ha; 0 to 100 scale where 0 is no effect and 100 is complete control
Summary of the method: as §1

large (Lg) crabgrass [14] = assay: Test A preemergence; type: in vivo, Digitaria sanguinalis; settings: for Plant response rating, Crabgrass, Large: 125 g ai/ha; for Crabgrass, Large plant response rating: 500 g ai/ha
Summary of the method: as §2

barnyardgrass [15] = assay: Test B flooded paddy test; type: in vivo, Echinochloa crus-galli; settings: Flood, 250 g ai/ha; 0 to 100 scale where 0 is no effect and 100 is complete control
Summary of the method: as §1

morningglory [16] = assay: Test A postemergence; type: in vivo, Ipomoea spp.; settings: 0 to 100 scale where 0 is no effect and 100 is complete control
Summary of the method: as §2

morningglory [17] = assay: Test A preemergence; type: in vivo, Ipomoea spp.; settings: for Morningglory plant response rating: 500 g ai/ha
Summary of the method: as §2

[18] = 125 g ai/ha, 0 to 100 scale where 0 is no effect and 100 is complete control
[19] = 0 to 100 scale, 0 no effect, 100 complete control, approx. 10 days
[20] = 0 to 100 scale where 0 is no effect and 100 is complete control
[21] = 500 g ai/ha, 0 to 100 scale, 0 no effect, 100 complete control
[22] = 500 g ai/ha, 0 to 100 scale where 0 is no effect and 100 is complete control

N#Cc1cccc(Oc2ncc(I)cn2)c1-n1cc(Cl)cn1 [Compound 75]
Plant response rating, Sedge, Umbrella (sedge, umbrella): 50
Plant response rating, Pigweed (pigweed [1]; [18]): 100
Pigweed plant response rating (pigweed [1]; [19]): 100
Plant response rating, Corn (corn [2]; [20]): 0
Corn plant response rating (corn [2]; [19]): 10
Plant response rating, Corn (corn [3]; [18]): 0
Plant response rating, Corn (corn [3]; [21]): 40
Plant response rating, Crabgrass, Large (large (Lg) crabgrass [4]; [18]): 20
Plant response rating, Crabgrass, Large (large (Lg) crabgrass [4]; [21]): 70
Plant response rating, Barnyardgrass (barnyardgrass [5]; [18]): 30
Plant response rating, Barnyardgrass (barnyardgrass [5]; [21]): 70
Plant response rating, Rice (rice): 0
Plant response rating, Foxtail, Giant (giant foxtail [6]; 125 g ai/ha): 10
Plant response rating, Foxtail, Giant (giant foxtail [6]; 500 g ai/ha): 80
Plant response rating, Velvetleaf (velvetleaf [7]; [18]): 40
Velvetleaf plant response rating (velvetleaf [7]; [19]): 80
Plant response rating, Wheat (wheat [8]; [18]): 0
Wheat plant response rating (wheat [8]; [19]): 0
Plant response rating, Velvetleaf (velvetleaf [9]; 125 g ai/ha): 40
Plant response rating, Velvetleaf (velvetleaf [9]; 500 g ai/ha): 70
Plant response rating, Pigweed (pigweed [10]; 125 g ai/ha): 70
Plant response rating, Pigweed (pigweed [10]; 500 g ai/ha): 100
Plant response rating, Wheat (wheat [11]; 125 g ai/ha): 0
Plant response rating, Wheat (wheat [11]; 500 g ai/ha): 0
Plant response rating, Barnyardgrass (barnyardgrass [12]; [20]): 20
Barnyardgrass plant response rating (barnyardgrass [12]; [19]): 70
Plant response rating, Foxtail, Giant (giant foxtail [13]; [20]): 40
Foxtail, Giant plant response rating (giant foxtail [13]; [19]): 100
Plant response rating, Ducksalad (Heteranthera limosa): 60
Plant response rating, Crabgrass, Large (large (Lg) crabgrass [14]; [20]): 70
Crabgrass, Large plant response rating (large (Lg) crabgrass [14]; [19]): 100
Plant response rating, Barnyardgrass (barnyardgrass [15]): 0
Plant response rating, Morningglory (morningglory [16]; 125 g ai/ha): 50
Plant response rating, Morningglory (morningglory [16]; 500 g ai/ha): 60
Plant response rating, Morningglory (morningglory [17]; [18]): 20
Morningglory plant response rating (morningglory [17]; [19]): 30

N#Cc1cnc(Oc2cccc(C=O)c2-n2cc(Br)cn2)nc1 [Compound 174]
Plant response rating, Sedge, Umbrella (sedge, umbrella): 0
Pigweed plant response rating (0 to 100 scale) (pigweed [1]; 125 g ai/ha): 0
Pigweed plant response rating (pigweed [1]; [20]): 0
Plant response rating, Corn (corn [2]; [20]): 0
Corn plant response rating (corn [2]; [20]): 0
Corn plant response rating (corn [3]; [18]): 0
Plant response rating, Corn (corn [3]; [22]): 0
Crabgrass, Large plant response rating (large (Lg) crabgrass [4]; [18]): 0
Plant response rating, Crabgrass, Large (large (Lg) crabgrass [4]; [22]): 0
Barnyardgrass plant response rating (barnyardgrass [5]; [18]): 0
Plant response rating, Barnyardgrass (barnyardgrass [5]; [22]): 0
Plant response rating, Rice (rice): 0
Foxtail, Giant plant response rating (giant foxtail [6]; 125 g ai/ha): 0
Plant response rating, Foxtail, Giant (giant foxtail [6]; 500 g ai/ha): 0
Velvetleaf plant response rating (0 to 100 scale) (velvetleaf [7]; 125 g ai/ha): 0
Velvetleaf plant response rating (velvetleaf [7]; [20]): 0
Wheat plant response rating (0 to 100 scale) (wheat [8]; 125 g ai/ha): 0
Wheat plant response rating (wheat [8]; [20]): 0
Velvetleaf plant response rating (velvetleaf [9]; 125 g ai/ha): 0
Plant response rating, Velvetleaf (velvetleaf [9]; 500 g ai/ha): 0
Pigweed plant response rating (pigweed [10]; 125 g ai/ha): 0
Plant response rating, Pigweed (pigweed [10]; 500 g ai/ha): 0
Wheat plant response rating (wheat [11]; 125 g ai/ha): 0
Plant response rating, Wheat (wheat [11]; 500 g ai/ha): 0
Plant response rating, Barnyardgrass (barnyardgrass [12]; [20]): 0
Barnyardgrass plant response rating (barnyardgrass [12]; [20]): 0
Plant response rating, Foxtail, Giant (giant foxtail [13]; [20]): 0
Foxtail, Giant plant response rating (giant foxtail [13]; [20]): 0
Plant response rating, Ducksalad (Heteranthera limosa): 0
Plant response rating, Crabgrass, Large (large (Lg) crabgrass [14]; [20]): 0
Crabgrass, Large plant response rating (large (Lg) crabgrass [14]; [20]): 0
Plant response rating, Barnyardgrass (barnyardgrass [15]): 0
Morningglory plant response rating (morningglory [16]; 125 g ai/ha): 0
Plant response rating, Morningglory (morningglory [16]; 500 g ai/ha): 0
Morningglory plant response rating (0 to 100 scale) (morningglory [17]; 125 g ai/ha): 0
Morningglory plant response rating (morningglory [17]; [20]): 0
